Measurements: ChEMBL document CHEMBL3853292, “Aspewentins D-H, 20-Nor-isopimarane Derivatives from the Deep Sea Sediment-Derived Fungus Aspergillus wentii SD-310” (J Nat Prod, 2016)
Converted amounts (≈) assume the structure as drawn.

Experiments:
Edwardsiella tarda = assay: Antimicrobial activity against Edwardsiella tarda QDIO-2 measured after 24 hrs by XTT assay; type: functional; settings: QDIO-2, 24 h
Micrococcus luteus = assay: Antimicrobial activity against Micrococcus luteus QDIO-3 measured after 24 hrs by XTT assay; type: functional; settings: QDIO-3, 24 h
Escherichia coli = assay: Antimicrobial activity against Escherichia coli EMBLC-1 measured after 24 hrs by XTT assay; type: functional; settings: EMBLC-1, 24 h
Staphylococcus aureus = assay: Antimicrobial activity against Staphylococcus aureus EMBLC-2 measured after 24 hrs by XTT assay; type: functional; settings: EMBLC-2, 24 h
Aeromonas hydrophila = assay: Antimicrobial activity against Aeromonas hydrophila QDIO-1 measured after 24 hrs by XTT assay; type: functional; settings: QDIO-1, 24 h
Pseudomonas aeruginosa = assay: Antimicrobial activity against Pseudomonas aeruginosa QDIO-4 measured after 24 hrs by XTT assay; type: functional; settings: QDIO-4, 24 h
Vibrio anguillarum = assay: Antimicrobial activity against Vibrio anguillarum QDIO-6 measured after 24 hrs by XTT assay; type: functional; settings: QDIO-6, 24 h
Vibrio harveyi = assay: Antimicrobial activity against Vibrio harveyi QDIO-7 measured after 24 hrs by XTT assay; type: functional; settings: QDIO-7, 24 h
Vibrio parahaemolyticus = assay: Antimicrobial activity against Vibrio parahaemolyticus QDIO-8 measured after 24 hrs by XTT assay; type: functional; settings: QDIO-8, 24 h
Alternaria brassicae = assay: Antimicrobial activity against Alternaria brassicae QDAU-1 measured after 24 hrs by XTT assay; type: functional; settings: QDAU-1, 24 h
[1] = system: Colletotrichum gloeosporioides; assay: Antimicrobial activity against Colletotrichum gloeosporioides QDAU-2 by XTT assay; type: functional
Fusarium graminearum = assay: Antimicrobial activity against Fusarium graminearum QDAU-4 measured after 24 hrs by XTT assay; type: functional; settings: QDAU-4, 24 h
Gaeumannomyces graminis = assay: Antimicrobial activity against Gaeumannomyces graminis QDAU-3 measured after 24 hrs; type: functional; settings: QDAU-3, 24 h
[2] = Toxicity in brine shrimp larvae assessed as lethality measured after 24 hrs by macroscopic analysis; settings: artemia salina; read-out: LD50

Question: With O=C(N[C@H](CO)[C@H](O)c1ccc([N+](=O)[O-])cc1)C(Cl)Cl [CHLORAMPHENICOL] as the compound, how does the MIC (Edwardsiella tarda) read?
Answer: 8 µg/mL (≈ 24.8 µM)

Question: What about the MIC (Micrococcus luteus) of the same compound?
Answer: 8 µg/mL (≈ 24.8 µM)

Question: And the MIC (Escherichia coli)?
Answer: 4 µg/mL (≈ 12.4 µM)

Question: What about the MIC (Staphylococcus aureus) of the same compound?
Answer: 0.5 µg/mL (≈ 1.55 µM)

Question: What about the MIC (Aeromonas hydrophila) of the same compound?
Answer: 4 µg/mL (≈ 12.4 µM)

Question: What about the MIC (Pseudomonas aeruginosa) of the same compound?
Answer: 4 µg/mL (≈ 12.4 µM)

Question: What about the MIC (Vibrio anguillarum) of the same compound?
Answer: 0.5 µg/mL (≈ 1.55 µM)

Question: And the MIC (Vibrio harveyi)?
Answer: 4 µg/mL (≈ 12.4 µM)

Question: And the MIC (Vibrio parahaemolyticus)?
Answer: 1 µg/mL (≈ 3.09 µM)

Question: Which results are given for C=C[C@]1(C)C=C2C(=O)C=C3C(C)(C)CCC[C@]3(O)[C@@]2(O)CC1?
Answer: MIC (Edwardsiella tarda): > 32 µg/mL; MIC (Micrococcus luteus): 4 µg/mL (≈ 13.2 µM); MIC (Escherichia coli): 32 µg/mL (≈ 106 µM); MIC (Staphylococcus aureus): > 32 µg/mL; MIC (Aeromonas hydrophila): > 32 µg/mL; MIC (Pseudomonas aeruginosa): 32 µg/mL (≈ 106 µM); MIC (Vibrio anguillarum): > 32 µg/mL; MIC (Vibrio harveyi): > 32 µg/mL; MIC (Vibrio parahaemolyticus): > 32 µg/mL; MIC (Alternaria brassicae): 8 µg/mL (≈ 26.5 µM); MIC [1]: > 32 µg/mL; MIC (Fusarium graminearum): 2 µg/mL (≈ 6.61 µM); MIC (Gaeumannomyces graminis): 32 µg/mL (≈ 106 µM); LC50 at 24 h [2]: > 10 µg/mL

Question: What does the source list for C=C[C@@]1(C)CCc2c(c(O)cc3c2CCCC3(C)C)C1?
Answer: MIC (Edwardsiella tarda): 16 µg/mL (≈ 59.2 µM); MIC (Micrococcus luteus): > 32 µg/mL; MIC (Escherichia coli): > 32 µg/mL; MIC (Staphylococcus aureus): 8 µg/mL (≈ 29.6 µM); MIC (Aeromonas hydrophila): > 32 µg/mL; MIC (Pseudomonas aeruginosa): > 32 µg/mL; MIC (Vibrio anguillarum): > 32 µg/mL; MIC (Vibrio harveyi): > 32 µg/mL; MIC (Vibrio parahaemolyticus): 4 µg/mL (≈ 14.8 µM); MIC (Alternaria brassicae): > 32 µg/mL; MIC [1]: > 32 µg/mL; MIC (Fusarium graminearum): > 32 µg/mL; MIC (Gaeumannomyces graminis): 8 µg/mL (≈ 29.6 µM); LC50 at 24 h [2]: > 10 µg/mL

Question: With C=C[C@@]1(C)CCc2c3c(cc(O)c2[C@H]1O)C(C)(C)[C@H](O)CC3 as the compound, how does the MIC (Edwardsiella tarda) read?
Answer: > 32 µg/mL

Question: And the MIC (Micrococcus luteus)?
Answer: > 32 µg/mL

Question: And the MIC (Escherichia coli)?
Answer: 16 µg/mL (≈ 52.9 µM)

Question: And the MIC (Staphylococcus aureus)?
Answer: 32 µg/mL (≈ 106 µM)

Question: And the MIC (Aeromonas hydrophila)?
Answer: > 32 µg/mL

Question: And the MIC (Pseudomonas aeruginosa)?
Answer: > 32 µg/mL

Question: What about the MIC (Vibrio anguillarum) of the same compound?
Answer: > 32 µg/mL

Question: What about the MIC (Vibrio harveyi) of the same compound?
Answer: 4 µg/mL (≈ 13.2 µM)

Question: And the MIC (Vibrio parahaemolyticus)?
Answer: > 32 µg/mL

Question: What about the MIC (Alternaria brassicae) of the same compound?
Answer: > 32 µg/mL

Question: What about the MIC [1] of the same compound?
Answer: 32 µg/mL (≈ 106 µM)

Question: And the MIC (Fusarium graminearum)?
Answer: > 32 µg/mL

Question: And the MIC (Gaeumannomyces graminis)?
Answer: 32 µg/mL (≈ 106 µM)

Question: What about the LC50 at 24 h [2] of the same compound?
Answer: > 10 µg/mL

Question: For C[C@@H]1[C@H](O)[C@@H](C)/C=C/C=C/C=C/C=C/C=C/C=C/C=C/[C@H](O[C@@H]2O[C@H](C)[C@@H](O)[C@H](N)[C@@H]2O)C[C@@H]2O[C@](O)(C[C@@H](O)C[C@@H](O)[C@H](O)CC[C@@H](O)C[C@@H](O)CC(=O)O[C@H]1C)C[C@H](O)[C@H]2C(=O)O [AMPHOTERICIN B], which MIC (Alternaria brassicae) is on record?
Answer: 32 µg/mL (≈ 34.6 µM)

Question: What about the MIC [1] of the same compound?
Answer: 32 µg/mL (≈ 34.6 µM)

Question: And the MIC (Fusarium graminearum)?
Answer: 8 µg/mL (≈ 8.66 µM)

Question: And the MIC (Gaeumannomyces graminis)?
Answer: 64 µg/mL (≈ 69.3 µM)

Question: With C=C[C@]1(C)C=C2C(=O)C=C3C(C)(C)[C@H](O)CC[C@]3(O)[C@H]2CC1 as the compound, how does the MIC (Edwardsiella tarda) read?
Answer: 4 µg/mL (≈ 13.2 µM)

Question: And the MIC (Micrococcus luteus)?
Answer: > 32 µg/mL

Question: And the MIC (Escherichia coli)?
Answer: > 32 µg/mL

Question: What about the MIC (Staphylococcus aureus) of the same compound?
Answer: 32 µg/mL (≈ 106 µM)

Question: And the MIC (Aeromonas hydrophila)?
Answer: 16 µg/mL (≈ 52.9 µM)

Question: And the MIC (Pseudomonas aeruginosa)?
Answer: > 32 µg/mL

Question: And the MIC (Vibrio anguillarum)?
Answer: 32 µg/mL (≈ 106 µM)

Question: And the MIC (Vibrio harveyi)?
Answer: 8 µg/mL (≈ 26.5 µM)

Question: What about the MIC (Vibrio parahaemolyticus) of the same compound?
Answer: 32 µg/mL (≈ 106 µM)

Question: What about the MIC (Alternaria brassicae) of the same compound?
Answer: > 32 µg/mL

Question: What about the MIC [1] of the same compound?
Answer: > 32 µg/mL

Question: What about the MIC (Fusarium graminearum) of the same compound?
Answer: > 32 µg/mL

Question: What about the MIC (Gaeumannomyces graminis) of the same compound?
Answer: > 32 µg/mL

Question: What about the LC50 at 24 h [2] of the same compound?
Answer: > 10 µg/mL

Question: Which results are given for C=C[C@]1(C)C=C2C(=O)C=C3C(C)(C)CC[C@@H](O)[C@]3(O)[C@H]2CC1?
Answer: MIC (Edwardsiella tarda): > 32 µg/mL; MIC (Micrococcus luteus): 16 µg/mL (≈ 52.9 µM); MIC (Escherichia coli): > 32 µg/mL; MIC (Staphylococcus aureus): > 32 µg/mL; MIC (Aeromonas hydrophila): > 32 µg/mL; MIC (Pseudomonas aeruginosa): > 32 µg/mL; MIC (Vibrio anguillarum): > 32 µg/mL; MIC (Vibrio harveyi): > 32 µg/mL; MIC (Vibrio parahaemolyticus): 32 µg/mL (≈ 106 µM); MIC (Alternaria brassicae): 32 µg/mL (≈ 106 µM); MIC [1]: > 32 µg/mL; MIC (Fusarium graminearum): > 32 µg/mL; MIC (Gaeumannomyces graminis): > 32 µg/mL; LC50 at 24 h [2]: > 10 µg/mL

Question: Which MIC (Edwardsiella tarda) does the source give for C=C[C@@]1(C)CCc2c3c(cc(O)c2[C@@H]1O)C(C)(C)[C@H](O)CC3 here?
Answer: > 32 µg/mL

Question: What about the MIC (Micrococcus luteus) of the same compound?
Answer: 16 µg/mL (≈ 52.9 µM)

Question: And the MIC (Escherichia coli)?
Answer: 32 µg/mL (≈ 106 µM)

Question: And the MIC (Staphylococcus aureus)?
Answer: > 32 µg/mL

Question: And the MIC (Aeromonas hydrophila)?
Answer: > 32 µg/mL

Question: What about the MIC (Pseudomonas aeruginosa) of the same compound?
Answer: 4 µg/mL (≈ 13.2 µM)

Question: And the MIC (Vibrio anguillarum)?
Answer: 32 µg/mL (≈ 106 µM)

Question: And the MIC (Vibrio harveyi)?
Answer: > 32 µg/mL

Question: What about the MIC (Vibrio parahaemolyticus) of the same compound?
Answer: 32 µg/mL (≈ 106 µM)

Question: And the MIC (Alternaria brassicae)?
Answer: 32 µg/mL (≈ 106 µM)

Question: And the MIC [1]?
Answer: 32 µg/mL (≈ 106 µM)

Question: And the MIC (Fusarium graminearum)?
Answer: 4 µg/mL (≈ 13.2 µM)

Question: What about the MIC (Gaeumannomyces graminis) of the same compound?
Answer: 32 µg/mL (≈ 106 µM)

Question: And the LC50 at 24 h [2]?
Answer: > 10 µg/mL
